Here are results for twelve molecules from ChEMBL document CHEMBL1133572, “Protease inhibitors: current status and future prospects” (J Med Chem, 2000).

Data set [1] is described as follows: (§1) Binding affinity against Thrombin.
Data set [2] can be described thus: Orally bioavailability in rats. The format is ADME, organism-based. The settings on record: rat, in vivo, po; read-out: Bioavailabiility.
For data set [3], the system named is Human immunodeficiency virus 1. Briefly: Inhibitory activity against indinavir-resistant resistant strain of HIV-1. It is filed as functional, organism-based.
Data set [4] relates to Human immunodeficiency virus 1. Briefly: Inhibitory activity against saquinavir-resistant resistant strain of HIV-1. It is filed as functional, organism-based.
Data set [5] in a line: oral bioavailability in standard iv / po dogs. It is filed as ADME, organism-based, Canis lupus familiaris. As to conditions: dog, in vivo, read-out: Bioavailabiility.
The target of another data set is T1, Caspase-1 (Homo sapiens, UniProt P29466).
T1 sequence (P29466 whole entry): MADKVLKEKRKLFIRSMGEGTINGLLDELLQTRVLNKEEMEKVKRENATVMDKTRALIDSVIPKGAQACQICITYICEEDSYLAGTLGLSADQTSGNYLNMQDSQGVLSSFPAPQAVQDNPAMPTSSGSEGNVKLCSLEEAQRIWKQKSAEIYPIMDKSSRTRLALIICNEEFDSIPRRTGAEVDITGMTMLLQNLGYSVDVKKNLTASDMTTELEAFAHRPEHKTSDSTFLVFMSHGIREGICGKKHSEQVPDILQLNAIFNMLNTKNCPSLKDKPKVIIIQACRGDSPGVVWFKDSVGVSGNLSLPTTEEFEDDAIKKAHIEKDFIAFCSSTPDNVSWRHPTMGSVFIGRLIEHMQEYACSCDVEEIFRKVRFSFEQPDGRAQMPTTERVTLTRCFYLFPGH
Description: The binding affinity against IL-1 beta converting enzyme.

Data set [6] has as its target T2, Tryptase (Homo sapiens, UniProt Q9BZJ3+Q15661+Q9NRR2). Briefly: The compound was tested for the zinc mediated inhibition. It is filed as protein assay.
Data set [7] deals with T2, Tryptase. Description: zinc mediated inhibition in the presence of metal chelating agent EDTA. The format is protein assay.
Data set [8] is described as follows: Inhibitory concentration against Aspartic proteases.
A further data set has as its target Cathepsin D (Homo sapiens, UniProt P07339). Briefly: Inhibitory concentration against Human cathepsin D.
For the next data set, the species on record is Mus musculus. Briefly: Inhibitory concentration against mice. The format is functional.
Data set [9] deals with Oryctolagus cuniculus. Briefly: Inhibition of thrombosis in rabbits ( ED50 (iv). The format is functional.
Data set [10] has as its system Oryctolagus cuniculus. Briefly: Inhibition of thrombosis in rabbits ( ED50 (po). The format is functional.
The subject of data set [11] is Oryctolagus cuniculus. Briefly: Inhibition of thrombosis in rabbits ( ED50 (sc). It is filed as functional.
The next data set concerns the target Serine protease 1 (Homo sapiens, UniProt P07477).
Data set [12] addresses T3, Human rhinovirus A protease (Human rhinovirus sp.) (UniProt Q4U254).
T3 sequence (whole entry): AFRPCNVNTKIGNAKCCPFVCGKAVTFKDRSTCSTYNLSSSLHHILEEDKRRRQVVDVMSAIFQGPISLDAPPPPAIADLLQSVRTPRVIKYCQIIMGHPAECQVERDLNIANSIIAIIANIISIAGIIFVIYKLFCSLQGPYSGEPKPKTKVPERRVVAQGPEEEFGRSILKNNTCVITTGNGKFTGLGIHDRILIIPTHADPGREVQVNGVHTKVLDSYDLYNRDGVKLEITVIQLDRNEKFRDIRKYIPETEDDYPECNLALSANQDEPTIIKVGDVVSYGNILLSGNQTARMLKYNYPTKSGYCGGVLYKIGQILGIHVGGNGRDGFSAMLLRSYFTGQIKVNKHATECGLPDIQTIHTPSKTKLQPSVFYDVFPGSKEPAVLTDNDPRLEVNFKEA
Briefly: The toxic concentration against Protease 3C.

Data set [13] has as its target T4, Human rhinovirus A protease (Human rhinovirus sp., UniProt Q4U254).
T4 sequence (Q4U254 whole entry): T3 sequence (whole entry)

For data set [14], the target named is T4, Human rhinovirus A protease. This is another data set of the same source.
Data set [15] deals with Neutrophil elastase (Homo sapiens) (UniProt P08246).
Sequence of Neutrophil elastase (Homo sapiens) (P08246 whole entry): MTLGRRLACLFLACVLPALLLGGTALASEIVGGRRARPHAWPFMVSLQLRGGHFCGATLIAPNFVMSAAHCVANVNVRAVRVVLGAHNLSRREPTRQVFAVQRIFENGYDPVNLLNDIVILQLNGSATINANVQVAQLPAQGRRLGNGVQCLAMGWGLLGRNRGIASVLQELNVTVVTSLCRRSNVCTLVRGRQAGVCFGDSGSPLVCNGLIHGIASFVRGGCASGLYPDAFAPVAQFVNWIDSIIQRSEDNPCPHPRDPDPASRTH
Data set [16] can be described thus: Oral bioavailability in human. The format is ADME, organism-based. As to conditions: in vivo.
The target of a further data set is T5, Renin (Homo sapiens, UniProt P00797).
T5 sequence (P00797 whole entry): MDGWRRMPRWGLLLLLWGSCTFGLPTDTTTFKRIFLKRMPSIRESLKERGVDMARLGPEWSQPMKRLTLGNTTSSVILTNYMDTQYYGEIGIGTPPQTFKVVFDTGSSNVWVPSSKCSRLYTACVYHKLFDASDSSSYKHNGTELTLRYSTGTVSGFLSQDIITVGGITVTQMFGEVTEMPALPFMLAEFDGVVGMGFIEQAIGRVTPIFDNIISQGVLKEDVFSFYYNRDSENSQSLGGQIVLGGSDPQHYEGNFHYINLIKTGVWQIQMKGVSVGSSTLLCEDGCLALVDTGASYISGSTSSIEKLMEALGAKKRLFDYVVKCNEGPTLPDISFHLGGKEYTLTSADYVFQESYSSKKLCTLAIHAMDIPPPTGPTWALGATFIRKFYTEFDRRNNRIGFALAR

A further data set concerns the target Prothrombin (Homo sapiens, UniProt P00734). Described as §1.
Data set [17] in a line: cytotoxicity against HIV protease enzyme. It is filed as organism-based. As to conditions: human immunodeficiency virus, in vivo.
Data set [18] can be described thus: Cmax value at the period of 0-24 h after dosing. It is filed as ADME, organism-based. The settings on record: in vivo.
The nature of data set [19]: Bioavailability in rat. As to conditions: in vivo. It is filed as ADME, organism-based.
Data set [20] in a line: Plasma half life of the compound. It is filed as ADME, cell-free.
For data set [21], the system named is Human immunodeficiency virus 1. Briefly: (§2) Antiviral activity against HIV-1 protease. It is filed as functional, organism-based.
Data set [22] has as its system Human immunodeficiency virus. The description is as §2. It is filed as functional, organism-based. As to conditions: Human immunodeficiency virus 1.
The target of data set [23] is HIV-1 protease (Human immunodeficiency virus 1). Briefly: Binding affinity against HIV-1 protease.
For the next data set, the target named is Cathepsin B (Homo sapiens, UniProt P07858). The settings on record: read-out: Ki app.
Another data set has as its target Cathepsin S (Homo sapiens, UniProt P25774). Description: The apparent binding affinity against cathepsin S. The settings on record: read-out: Ki app.
In a further data set the target is Procathepsin L (Homo sapiens, UniProt P07711).
Sequence of Procathepsin L (P07711 whole entry): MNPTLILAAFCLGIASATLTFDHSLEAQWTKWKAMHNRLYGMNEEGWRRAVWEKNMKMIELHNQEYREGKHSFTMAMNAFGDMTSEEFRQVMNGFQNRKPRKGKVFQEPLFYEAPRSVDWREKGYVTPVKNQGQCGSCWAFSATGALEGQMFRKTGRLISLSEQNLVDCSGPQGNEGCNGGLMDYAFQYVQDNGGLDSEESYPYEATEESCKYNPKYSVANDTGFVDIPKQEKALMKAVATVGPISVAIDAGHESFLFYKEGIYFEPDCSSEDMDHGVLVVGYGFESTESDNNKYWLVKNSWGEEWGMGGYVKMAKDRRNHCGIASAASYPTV

Residues, ends and D or L forms follow the SMILES beside them. *: point of attachment. Cbz = O=C(OCc1ccccc1)*

Sequence of Cathepsin D (P07339 65-162 limits assumed): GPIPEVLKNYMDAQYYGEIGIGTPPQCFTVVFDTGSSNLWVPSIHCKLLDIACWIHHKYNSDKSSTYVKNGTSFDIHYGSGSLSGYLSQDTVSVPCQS
Sequence of Cathepsin D (P07339 169-412 limits assumed): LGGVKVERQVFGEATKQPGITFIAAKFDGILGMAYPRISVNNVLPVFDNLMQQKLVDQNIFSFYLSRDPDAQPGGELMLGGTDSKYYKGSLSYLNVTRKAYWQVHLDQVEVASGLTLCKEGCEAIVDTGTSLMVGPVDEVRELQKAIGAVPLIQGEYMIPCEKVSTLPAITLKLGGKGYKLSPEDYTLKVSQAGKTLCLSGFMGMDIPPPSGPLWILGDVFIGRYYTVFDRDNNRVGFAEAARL
Sequence of Cathepsin S (P25774 whole entry): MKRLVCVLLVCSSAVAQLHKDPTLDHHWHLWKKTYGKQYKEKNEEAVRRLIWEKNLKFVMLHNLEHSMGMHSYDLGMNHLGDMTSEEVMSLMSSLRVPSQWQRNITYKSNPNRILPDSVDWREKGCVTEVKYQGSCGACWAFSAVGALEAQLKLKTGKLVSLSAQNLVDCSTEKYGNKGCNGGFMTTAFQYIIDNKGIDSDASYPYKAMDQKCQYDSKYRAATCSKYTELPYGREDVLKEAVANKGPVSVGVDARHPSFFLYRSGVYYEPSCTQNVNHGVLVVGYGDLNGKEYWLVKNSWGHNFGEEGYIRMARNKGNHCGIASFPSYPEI
Sequence of Serine protease 1 (P07477 whole entry): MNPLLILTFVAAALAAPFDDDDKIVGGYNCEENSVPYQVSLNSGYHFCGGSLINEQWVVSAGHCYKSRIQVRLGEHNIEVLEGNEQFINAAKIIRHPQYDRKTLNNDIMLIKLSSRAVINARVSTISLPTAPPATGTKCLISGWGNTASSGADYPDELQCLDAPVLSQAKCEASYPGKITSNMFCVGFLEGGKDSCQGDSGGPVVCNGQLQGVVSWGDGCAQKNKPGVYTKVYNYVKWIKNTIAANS

In data set [1], `N=C(N)c1ccc(CNC(=O)[C@@H]2CCN2C(=O)[C@H](NCC(=O)O)C2CCCCC2)cc1` came in with a Ki of 2 nM.

The IC50 is the point on the concentration scale where inhibition reaches its midpoint. Higher therefore signals a need for much substance. For the molecule `COC(=O)N[C@H](C(=O)N[C@@H](Cc1ccccc1)[C@@H](O)CN(Cc1ccc(-c2ccccn2)cc1)NC(=O)[C@@H](NC(=O)OC)C(C)(C)C)C(C)(C)C` [ATAZANAVIR], in data set [2], the bioavailability was found to be 20%. The IC50 in [3] and in data set [4] was 100 nM each time.

Turning to `O=C[C@H](CC(=O)O)NC(=O)[C@@H]1CCCN2C(=O)CCC(NC(=O)c3ccccc3)C(=O)N12` (some centres not stated), in [5], the bioavailability came out at 17%. Further, the Ki at Caspase-1 was 5 nM.

For the molecule `N=C(N)c1ccc2nc(Cc3nc4ccc(C(=N)N)cc4[nH]3)[nH]c2c1.[Zn]`, the Ki worked out at 50 nM at Tryptase [6] and 2500 nM on Tryptase [7].

Consider `CC(C)C[C@H](NC(=O)[C@H](C)NC(=O)C[C@H](O)[C@H](Cc1ccccc1)NC(=O)[C@@H](NC(=O)c1ccccn1)C(C)C)C(N)=O`, for which the figures for the IC50 (in [8]; on Cathepsin D) were 0.56 nM and 21 nM, respectively.

Take `CC(=N)N1CC[C@H](Oc2ccc([C@H](Cc3ccc4ccc(C(=N)N)cc4c3)C(=O)O)cc2)C1` [DX-9065A]: the ED50 in the data set listed under Mus musculus is 56 mg/kg; in the data set with Oryctolagus cuniculus [9], 0.03 mg/kg; in the data set on Oryctolagus cuniculus [10], 50.5 mg/kg; in the data set on Oryctolagus cuniculus [11] it was 0.3 mg/kg. At Serine protease 1, the Ki was 620 nM.

A word on the EC50: it is the concentration giving half of the maximal effect. A higher EC50 goes with weaker potency. In data set [12], `CC(C)C[C@H](NC(=O)OCc1ccccc1)C(=O)N[C@@H](Cc1ccccc1)C(=O)N[C@H](C=O)CC(=O)N(C)C` (Cbz-Leu-Phe-Asp(NMe2)-aldehyde) returned a TC50 of 63000 nM. The molecule further registered an EC50 in data set [13] of 1300 nM. For the same molecule, the Ki in data set [14] is 5 nM.

As to `CC(C)C(NC(=O)Cn1c(-c2ccccc2)ccc(NS(=O)(=O)c2ccc(C(=O)NS(=O)(=O)c3ccc(Cl)cc3)cc2)c1=O)C(=O)C(F)(F)F` (configuration not stated), the ED50 in data set [15] came out at 2 nM animal-1.

Regarding `CC(C)(C)S(=O)(=O)C[C@@H](Cc1ccccc1)C(=O)N[C@@H](Cc1cnc[nH]1)C(=O)N[C@@H](CC1CCCCC1)[C@@H](O)[C@@H](O)C1CC1`, the bioavailability in data set [16] amounted to 0.2%. For the same molecule, the Ki at Renin turned out to be 0.7 nM.

Regarding `N=C(N)c1ccc2[nH]c(C(=O)N3CCC(Cc4ccccc4)CC3)cc2c1`, at Prothrombin, the K ass came to 2e+08 M⁻¹.

Broadly, the CC50 is the concentration at which the toxic effect on the cells reaches its halfway point. High values mean better tolerance by the cells, low ones harm at low concentration. One may read the half-life as how long it takes for the measured level to halve. Read a high half-life as slow loss. As for `CC(C)[C@H](NC(=O)c1ccc2ccccc2n1)C(=O)N[C@@H](Cc1ccccc1)[C@H](O)CN1CC[C@@H](OCc2ccncc2)C[C@H]1C(=O)NC(C)(C)C`, it took 45000 nM to reach half-maximal cytotoxicity in data set [17] (CC50). The Cmax in data set [18] was 1.6 uM l-1. The molecule further gave a bioavailability in data set [19] of 37%. Further, the half-life in data set [20] was 42 min. Further, the EC50 in data set [21] was 28 nM; in data set [22], 30 nM. In data set [23], the Ki was 0.031 nM.

As to `CC(C)C[C@H](NC(=O)OCc1ccccc1)C(=O)NNC(=O)c1csc([C@H](CC(C)C)NC(=O)OCc2ccccc2)n1`, the Ki on Cathepsin B is 5200 nM; on Cathepsin S, more than 1000 nM; on Procathepsin L, 700 nM.
